In US12258326B2, “Pyrazole derivative and harmful organism-controlling agent” (KUMIAI CHEMICAL INDUSTRY CO., LTD., priority 2018, dated 2025):
Read-outs that look alike come from different tables or passages of the source.

Columns and labels:
Type in all cases: in vivo
Nilaparvata lugens = Nilaparvata lugens killing activity test; settings: 144 h, active ingredient 500 ppm, dipped paddy, second instar larvae, after 6 days, 25° C., read-out: insect mortality
Experimental: The water-dispersible powder prepared in accordance with Formulation example 2 was diluted in water so that the concentration of the active ingredient was 500 ppm. Paddy was dipped in this liquid agent, and then put into a plastic cup. Ten second instar larvae of Nilaparvata lugens were released in the plastic cup, and the cup was lidded, and placed in a thermostatic chamber at 25° C. After 6 days, the number of live insects was counted, and the insect mortality was determined by the calculation formula of numerical formula 1. The test was conducted singly.

Helicoverpa armigera = Helicoverpa armigera killing test; settings: 144 h, active ingredient 500 ppm, dipped cabbage leaf, newly hatched larvae, after 6 days, 25° C., read-out: insect mortality
Experimental: (§1) The water-dispersible powder prepared in accordance with Formulation example 2 was diluted in water so that the concentration of the active ingredient was 500 ppm. A cabbage leaf was dipped in this liquid agent, and air-dried, and then put into a plastic cup. Five newly hatched larvae of Helicoverpa armigera were released in the cup, and the cup was lidded. Then, the cup was placed in a thermostatic chamber at 25° C., and the number of dead insects was examined after 6 days, and the insect mortality was determined by the calculation formula of numerical formula 1. The test was conducted in duplicate.

Aphis gossypii = Aphis gossypii killing test; settings: read-out: insect mortality
Experimental: The water-dispersible powder prepared in accordance with Formulation example 2 was diluted in water so that the concentration of the active ingredient was 500 ppm. A nursery plant of cucumber preliminarily inoculated with nymphs of Aphis gossypii was dipped in this liquid agent, and air-dried. The nursery plant of cucumber after the treatment was placed in a thermostatic chamber at 25° C., and the number of live insects was counted after 3 days, and the insect mortality was determined by the calculation formula of numerical formula 1. The test was conducted singly.

Plutella xylostella = Plutella xylostella killing test; settings: 144 h, active ingredient 500 ppm, dipped cabbage leaf, second instar larvae, after 6 days, 25° C., read-out: insect mortality
Experimental: as §1, with “Ten second instar” for “Five newly hatched”, “Plutella xylostella” for “Helicoverpa armigera”, “singly.” for “in duplicate.”

[1] = active ingredient 500 ppm, dipped cucumber nursery plant inoculated with nymphs, after 3 days, 25° C.

Cc1ccccc1-c1cn(-c2cccnc2)nc1C(N)=O [A-0020, 1-(pyridine-3-yl)-4-(2-methylphenyl)-1H-pyrazole-3-carboxamide]
mortality at 500 ppm (Nilaparvata lugens): ≥ 50%
mortality at 500 ppm (Helicoverpa armigera): ≥ 50%
mortality at 500 ppm (Aphis gossypii; [1]): ≥ 50%
mortality at 500 ppm (Plutella xylostella): ≥ 50%

NC(=O)c1nn(-c2cccnc2)cc1-c1ccccc1C(F)(F)F [A-0044, 1-(pyridine-3-yl)-4-[2-(trifluoromethyl)phenyl]-1H-pyrazole-3-carboxamide]
mortality at 500 ppm (Aphis gossypii; [1]): ≥ 50%

COc1cc(Cl)ccc1-c1cn(-c2cccnc2)nc1C(N)=O [A-0634, 4-(4-chloro-2-methoxyphenyl)-1-(pyridine-3-yl)-1H-pyrazole-3-carboxamide]
mortality at 500 ppm (Nilaparvata lugens): ≥ 50%
mortality at 500 ppm (Helicoverpa armigera): ≥ 50%
mortality at 500 ppm (Aphis gossypii; [1]): ≥ 50%
mortality at 500 ppm (Plutella xylostella): ≥ 50%

COCC(=O)NC(=O)c1nn(-c2cccnc2)cc1-c1ccccc1C [A-4808, N-(2-methoxyacetyl)-1-(pyridine-3-yl)-4-(2-methylphenyl)-1H-pyrazole-3-carboxamide]
mortality at 500 ppm (Nilaparvata lugens): ≥ 50%
mortality at 500 ppm (Aphis gossypii; [1]): ≥ 50%

Cc1ccccc1-c1cn(-c2cccnc2)nc1C(N)=S [A-8646, 1-(pyridine-3-yl)-4-(2-methylphenyl)-1H-pyrazole-3-carbothioamide]
mortality at 500 ppm (Nilaparvata lugens): ≥ 50%
mortality at 500 ppm (Plutella xylostella): ≥ 50%

Cc1ccccc1-c1cn(-c2ccc[n+]([O-])c2)nc1C(N)=O [A-8862, 3-[3-carbamoyl-4-(2-methylphenyl)-1H-pyrazole-1-yl]pyridine-1-oxide]
mortality at 500 ppm (Nilaparvata lugens): ≥ 50%
mortality at 500 ppm (Aphis gossypii; [1]): ≥ 50%

Cc1cccnc1-c1cn(-c2cccnc2)nc1C(N)=O [B-0027, 4-(3-methylpyridine-2-yl)-1-(pyridine-3-yl)-1H-pyrazole-3-carboxamide]
mortality at 500 ppm (Nilaparvata lugens): ≥ 50%
mortality at 500 ppm (Helicoverpa armigera): ≥ 50%
mortality at 500 ppm (Aphis gossypii; [1]): ≥ 50%
mortality at 500 ppm (Plutella xylostella): ≥ 50%

Cc1ccncc1-c1cn(-c2cccnc2)nc1C(N)=O [B-0100, 4-(4-methylpyridine-3-yl)-1-(pyridine-3-yl)-1H-pyrazole-3-carboxamide]
mortality at 500 ppm (Nilaparvata lugens): ≥ 50%
mortality at 500 ppm (Helicoverpa armigera): ≥ 50%
mortality at 500 ppm (Plutella xylostella): ≥ 50%

CCOC(=O)c1nn(-c2cccnc2)cc1-c1ccccc1C(F)(F)F [C-0044, Ethyl 1-(pyridine-3-yl)-4-(2-(trifluoromethyl)phenyl)-1H-pyrazole-3-carboxylate]
mortality at 500 ppm (Nilaparvata lugens): ≥ 50%
mortality at 500 ppm (Aphis gossypii; [1]): ≥ 50%

CCOC(=O)c1nn(-c2cccnc2)cc1-c1ccc(Cl)cc1OC [C-0634, Ethyl 4-(4-chloro-2-methoxyphenyl)-1-(pyridine-3-yl)-1H-pyrazole-3-carboxylate]
mortality at 500 ppm (Plutella xylostella): ≥ 50%

CCOC(=O)c1nn(-c2cccnc2)cc1I [D-0003, ethyl 4-iodo-1-(pyridine-3-yl)-1H-pyrazole-3-carboxylate]
mortality at 500 ppm (Helicoverpa armigera): ≥ 50%
mortality at 500 ppm (Aphis gossypii; [1]): ≥ 50%

CCOC(=O)c1nn(-c2cccnc2)cc1OS(=O)(=O)C(F)(F)C(F)(F)C(F)(F)C(F)(F)F [D-0008, Ethyl 4-{[(nonafluorobutyl)sulfonyl]oxy}-1-(pyridine-3-yl)-1H-pyrazole-3-carboxylate]
mortality at 500 ppm (Aphis gossypii; in Cucumis sativus): ≥ 50%

CCOC(=O)c1nn(-c2cccnc2)cc1-c1ncccc1C [D-0035, Ethyl 4-(3-methylpyridine-2-yl)-1-(pyridine-3-yl)-1H-pyrazole-3-carboxylate]
mortality at 500 ppm (Nilaparvata lugens): ≥ 50%
mortality at 500 ppm (Helicoverpa armigera): ≥ 50%
mortality at 500 ppm (Aphis gossypii; [1]): ≥ 50%
mortality at 500 ppm (Plutella xylostella): ≥ 50%

CCOC(=O)c1nn(-c2cccnc2)cc1-c1cnccc1C [D-0108, Ethyl 4-(4-methylpyridine-3-yl)-1-(pyridine-3-yl)-1H-pyrazole-3-carboxylate]
mortality at 500 ppm (Helicoverpa armigera): ≥ 50%
mortality at 500 ppm (Aphis gossypii; [1]): ≥ 50%
mortality at 500 ppm (Plutella xylostella): ≥ 50%

Cc1ccncc1-c1cn(-c2cccnc2)nc1C(=O)O [F-0108, 4-(4-methylpyridine-3-yl)-1-(pyridine-3-yl)-1H-pyrazole-3-carboxylic acid]
mortality at 500 ppm (Helicoverpa armigera): ≥ 50%
mortality at 500 ppm (Plutella xylostella): ≥ 50%
